Consider eleven molecules from patent US8569504B2, “Imidazopyridine compound” (Ono Pharmaceutical Co., Ltd., priority 2009, dated 2013).

Data set [1] is described as follows: Measurement of cell toxicity using HepG2 human liver cancer cell lines (ATP, Celltiter Glo). Particulars: human, HepG2 cells; 24 hours of exposure, ATP concentration. The format is cell-based. As to the method:
(§1) The cells were then exposed to the compound of the present invention and the comparative compounds for 24 hours. The compound of the present invention and the comparative compounds were dissolved with DMSO, and then diluted 100 times with culture liquid comprising L-glutamine, non-essential amino acids and 1% bovine fetal serum which were added to minimum essential medium (MEM). […] The cells were dissolved with the assay buffer in the measurement kit, and the ATP concentration released from the cells was measured based on luciferin-luciferase enzyme activity. Light emission was measured with a SpectraMax plate reader (Molecular Device).

The subject of data set [2] is HepG2 human liver cancer cell lines. The description is as above. The format is cell-based. The note with it: 24 hours of exposure, ATP concentration; concentration that produced toxicity in 10% of cells. As to the method:
as §1

The next data set deals with T1, Human chymase (Homo sapiens, UniProt P23946).
T1 construct: purchased East Coast Biologics
T1 sequence (P23946 22-247): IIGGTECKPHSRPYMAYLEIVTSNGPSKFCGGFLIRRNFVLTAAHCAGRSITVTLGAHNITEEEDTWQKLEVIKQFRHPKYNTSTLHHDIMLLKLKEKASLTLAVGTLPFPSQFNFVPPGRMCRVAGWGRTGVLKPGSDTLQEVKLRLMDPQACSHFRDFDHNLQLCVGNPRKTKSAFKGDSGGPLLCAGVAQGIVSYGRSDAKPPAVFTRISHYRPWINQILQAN
The data set can be described thus: Measurement of human chymase enzyme inhibitory activity. The format is biochemical. Particulars: for IC90: concentration at which 90% of enzyme activity was inhibited; for IC50: peptide substrate N-Succinyl-Ala-Ala-Pro-Phe-p-nitroanilide 2.5 mmol/L, 37° C., pH 7.6. The method, then:
Human Chymase Pure (hereunder called chymase; East Coast Biologics) was stored in a freezer at −20° C., and diluted with distilled water immediately prior to use. N-Succinyl-Ala-Ala-Pro-Phe-p-nitroanilide (hereunder called the peptide substrate; Sigma Aldrich) was prepared with dimethylsulfoxide (hereunder called DMSO) as a 50 mmol/L solution, and stored in a freezer at −20° C. The compound of the present invention and the comparative compounds were prepared with DMSO as 10 mmol/L solutions, and stored in a freezer at −20° C. On the day of measurement, the solutions of the compound of the present invention and the comparative compound were diluted in stages with 50% DMSO to 10 times concentration of the final target concentration, and the solution were prepared. 10 μL solutions of the compounds of the present invention and the comparative compounds, and 80 μL solution of a peptide substrate (final concentration 2.5 mmol/L) diluted with assay buffer (50 mmol/L Tris-HCl, 150 mmol/L NaCl, 50 units/mL heparin (pH 7.6)) were added to a 96-well microplate, incubated for 10 minutes at 37° C. 10 μL of chymase was added to a final concentration of 0.1 μg/L to initiate enzyme activity. Absorbance at 405 nm was monitored for 5 minutes at 30-second intervals, and the reaction speed (Δm O.D./minute) was measured. 10 μL of 50% DMSO was added to the control well and blank well in place of the solutions of the compound of the present invention and the comparative compound. Moreover, 10 μL of distilled water was added to the blank well in place of chymase. Given 100% as the value of the control well reaction speed minus the blank well reaction speed, the reaction speeds of the wells containing the compound of the present invention and the comparative compounds were calculated as percentages.

Data set [3] is described as follows: Stability experiment using human liver microsomes. The data set is classed as in vitro ADME. Particulars: 5 μmol/L, 0.5 mg/mL human liver microsomes with NADPH, 15 minutes, 37° C. The method, then:
5 μL of the compound of the present invention and each comparative compound (10 mmol/L DMSO solution) was diluted with 195 μL of 50% acetonitrile aqueous solution to prepare 250 μmol/L solutions of the compound of the present invention and comparative compound. 245 μL of 0.5 mg/mL human liver microsomes (0.1 mol/L pH 7.4 phosphate buffer solution) containing NADPH Co factor (NADPH Regenerating System Solution A (BD Bioscience) and NADPH Regenerating System Solution B (BD Bioscience), each diluted 10 times and 50 times with 0.1 mol/L pH 7.4 phosphate buffer (NADP+2.6 mmol/L)) were added to a reaction container that had been warmed in advance to 37° C. in a water bath, and pre-incubated for 5 minutes, after which 5 μL solution of the compound of the present invention and the comparative compound was added to initiate a reaction (final concentration 5 μmol/L). Immediately after initiation 20 μL was collected, and 20 μL was added to 180 μL of acetonitrile containing I.S. (internal standard (warfarin)) to terminate the reaction. 180 μL of 50% acetonitrile aqueous solution was added to this 20 μL on a plate with a protein exclusion filter, stirred and filtered by suction. The filtrate was used as a standard sample. After incubating the reaction solution for 15 minutes, 20 μL of a liver microsome solution was collected, and added to 180 μL of acetonitrile containing I.S. (internal standard (warfarin)) in order to terminate the reaction. 180 μL of 50% acetonitrile aqueous solution was added to this 20 μL on a plate with a protein exclusion filter, stirred and filtered by suction. The filtrate was used as a reaction sample. The survival ratio (%) was calculated by injecting 5 μL of sample solution into a LC-MS/MS (Thermo Scientific Discovery Max), dividing the peak area ratio of the reaction sample (the compound of the present invention and the comparative compound/I.S.) by the peak area ratio of the standard sample, and multiplying by 100.

Some results are limits rather than exact numbers.

`Cc1cccc2scc(Cn3c(SCCCC(=O)O)nc4ccccc43)c12` [Comparative Compound 1, 4-(1-((4-methylbenzothiophen-3-yl)methyl)benzimidazol-2-ylthio)butanoic acid, reference compound] came in with an IC50 at 24 h in data set [1] of 81 µM. Moreover, the “Cell toxicity in HepG2 human liver cancer cell lines IC10” value (from here on “Cell toxicity”) in data set [2] was 45 µM.
On Human chymase, `Cc1cccc2scc(Cc3c(SCCCC(=O)O)nc4ccccn34)c12` [Comparative Compound 2, 4-[3-(4-methyl-benzo[b]thiophen-3-ylmethyl)-imidazo[1,2-a]pyridin-2-ylsulfanyl]butanoic acid, reference compound] had an IC90 of 2800 nM and an IC50 of 340 nM. The same molecule yielded an IC50 at 24 h in data set [1] of 219 µM. Also, the “Cell toxicity” value in data set [2] came to 66 µM.
On Human chymase, `O=C(O)c1ccccc1Sc1nc2ccccc2n1Cc1cccc2ccccc12` [Comparative Compound 3, 2-{[1-(1-naphthylmethyl)-1H-benzimidazol-2-yl]thio}benzoic acid, reference compound] showed an IC90 of 1600 nM and an IC50 of 130 nM. In data set [1], this molecule came in with an IC50 at 24 h of 40 µM. Also, the “Cell toxicity” value in data set [2] was found to be 29 µM.
With `Cc1cccc2c1c(Cn1c(Sc3ccccc3C(=O)O)nc3ccccc31)cn2C` [Comparative Compound 4, 2-([1-[(1,4-dimethyl-1H-indol-3-yl)methyl]-1H-benzimidazol-2-yl]thio)benzoic acid, reference compound], at Human chymase, the IC90 was determined as 790 nM and the IC50 was found to be 75 nM. The IC50 at 24 h in data set [1] was 84 µM. In addition, the “Cell toxicity” value in data set [2] came to 53 µM.
On Human chymase, `Cc1cccc2[nH]cc(Cc3c(-c4ccc5ccccc5c4C(=O)O)nc4ccccn34)c12` [Example 7, 2-[3-[(4-methyl-1H-indol-3-yl)methyl]imidazo[1,2-a]pyridin-2-yl]-1-naphthoic acid] showed an IC90 of 63 nM and an IC50 of 1 nM. Further, in data set [1], the IC50 at 24 h was 132 µM. Further, in data set [2], the “Cell toxicity” value was found to be 58 µM. For the same molecule, in data set [3], the “Human liver Ms stability (survival ratio)” value came out at 93%.
At Human chymase, `Cc1ccc2nc(-c3ccccc3C(=O)O)c(Cc3cn(C)c4cccc(C)c34)n2c1` [Example 11, 2-{3-[(1,4-dimethyl-1H-indol-3-yl)methyl]-6-methylimidazo[1,2-a]pyridin-2-yl}benzoic acid] displayed an IC90 of 270 nM and an IC50 of 23 nM. This molecule showed an IC50 at 24 h in data set [1] greater than 400 µM. The “Cell toxicity” value in data set [2] amounted to 248 µM. For the same molecule, the “Human liver Ms stability (survival ratio)” value in data set [3] came to 86%.
With `Cc1cccc2c1c(Cc1c(-c3ccccc3C(=O)O)nc3ccccn13)cn2C` [Example 13, 2-{3-[(1,4-dimethyl-1H-indol-3-yl)methyl]imidazo[1,2-a]pyridin-2-yl}benzoic acid], at Human chymase, the IC90 was found to be 200 nM and it took 28 nM to reach half-maximal inhibition (IC50). In data set [1], this molecule came in with an IC50 at 24 h of 424 µM. Further, the “Cell toxicity” value in data set [2] came out at 135 µM. Also, the “Human liver Ms stability (survival ratio)” value in data set [3] was 93%.
For `CCn1cc(Cc2c(-c3ccccc3C(=O)O)nc3ccccn23)c2c(C)cccc21` [Example 15, 2-{3-[(1-ethyl-4-methyl-1H-indol-3-yl)methyl]imidazo[1,2-a]pyridin-2-yl}benzoic acid] the same measures were 240 nM, 30 nM, 267 µM, 115 µM and 87%.
At Human chymase, `Cc1cccc2[nH]cc(Cc3c(-c4ccc5ccccc5c4C(=O)O)nc4ccc(F)cn34)c12` [Example 16, 2-{6-fluoro-3-[(4-methyl-1H-indol-3-yl)methyl]imidazo[1,2-a]pyridin-2-yl}-1-naphthoic acid] showed an IC90 of 6 nM and an IC50 of 1 nM. The same molecule had an IC50 at 24 h in data set [1] of 131 µM. Also, in data set [2], the “Cell toxicity” value was found to be 29 µM. Besides, the “Human liver Ms stability (survival ratio)” value in data set [3] was determined as 88%.
For `Cc1c(F)ccc2[nH]cc(Cc3c(-c4ccccc4C(=O)O)nc4ccccn34)c12` [Example 19, 2-{3-[(5-fluoro-4-methyl-1H-indol-3-yl)methyl]imidazo[1,2-a]pyridin-2-yl}benzoic acid], on Human chymase, the IC90 came to 120 nM and the IC50 stood at 11 nM. Further, the IC50 at 24 h in data set [1] amounted to 247 µM. Further, the “Cell toxicity” value in data set [2] amounted to 70 µM. In addition, the “Human liver Ms stability (survival ratio)” value in data set [3] worked out at 100%.
For `Cc1cccc2c1c(Cc1c(-c3ccc4ccccc4c3C(=O)O)nc3ccccn13)cn2CCN1CCOCC1` [Example 23-(4), 2-[3-({4-methyl-1-[2-(4-morpholinyl)ethyl]-1H-indol-3-yl}methyl)imidazo[1,2-a]pyridin-2-yl]-1-naphthoic acid] the same measures were 8 nM, 2 nM, 173 µM, 79 µM and 100%.
